Melting point data for 89 compounds are collected here from a melting point compilation (Tetko et al.; mined from patent text by program, amines drawn as free bases though some values may be those of a salt).

Broadly, the melting point is the temperature, or range, at which the solid turns liquid.

`COc1ccc(O)c(C2C(=O)N(Cc3ccc(C(F)(F)F)o3)c3cccc(Cl)c32)n1` (centres undefined) displayed a melting point of 151 to 152 °C.
To `COc1cccc2[nH]c3c(c12)CC(N(C)C)CC3` (centres undefined) belongs 185 to 189 °C.
On to `CCN(C)C1=NS(=O)(=O)c2cc(Cl)ccc2N1`, for which the melting point is over 220 °C.
In turn, `O=c1[nH]c2ccc(-c3cc(=O)c4ccccc4o3)cc2o1` showed a melting point of 348 °C.
Turning to `CCCCNC(=O)c1ccc(S(=O)(=O)NCCCC)o1`, the melting point came out at 69.4 °C.
To `C=CC1(F)CN(C2CCCC2)c2nc(Nc3ccc(C(=O)NC4CCCNC4)cc3OC)ncc2N(C)C1=O` (centres undefined) belongs 169 to 172 °C; to `C=CCOc1ccccc1N(CC(O)CNC(C)C)S(C)(=O)=O` (centres undefined), 139 to 141 °C; to `CN(C)S(=O)(=O)c1ccc2c(c1)S(=O)(=O)NC(C1CCCCC1)N2` (centres undefined), 243 to 245 °C.
For `CC(C)(C)c1cc(-c2nn(Cc3ccc([N+](=O)[O-])cc3)c3ncccc23)cc(C(C)(C)C)c1O`, the melting point was 143 to 145 °C.
Take `COCCn1c(S(C)=O)nc(-c2ccc(F)cc2)c1-c1ccnc(Nc2ccccc2)c1` (centres undefined): the melting point fell in the range of 83 to 85 °C.
To `COc1cc2c(Nc3cc(OC)c(Cl)cc3Cl)c(C#N)cnc2cc1F` belongs 219 to 221 °C; to `CC1=C(C(=O)c2ccc(C(=O)O)cc2)C(=O)C2C=CC=CC2C1=O` (centres undefined), 201 °C.
For the compound `COCCN(CCOC)c1nc(C)[nH]c2c(-c3ccc(Cl)cc3Cl)nc(C)c1-2`, the melting point was 74 to 75 °C.
In turn, `CCOC(=O)Cc1c(C)nc2c3cccc(Cl)c3ccn12` returned a melting point of 137 to 138 °C.
To `CCCCCCCCc1cnc(-c2ccc(OCC(C)OCCC)cc2)nc1` (centres undefined) belongs 37.4 °C; to `CCCN(CCC)[C@H]1Cc2c[nH]c3ccc(-c4cccnc4)c(c23)C1`, 185 to 186 °C.
Compound `O=C(O)c1ccc(-c2nccs2)nc1` had a melting point of over 300 °C.
To `COC(=O)c1ccc(Cc2cn(C(C)C)c3ccc(C=C(C)C(=O)O)cc23)c(OC)c1` belongs 143 to 145 °C; to `Nc1nc(-c2ccco2)nc2ccccc12`, 219 to 221 °C.
Consider `CCc1cc(CCc2nc3ccccc3o2)c(=O)[nH]c1COCc1ccccc1`, for which the melting point lay in the range of 140 to 142 °C.
To `COc1c(Cl)cc(C(=O)Cl)cc1Cl` belongs 153 to 157 °C.
To `CCc1nc2c(C)cc(C)nc2n1Cc1ccc(C(C(C)C)C(C)C(=O)O)cc1` (centres undefined) belongs 84 to 90 °C.
`O=C(c1ccc(Cl)cc1)C(O)(Cn1cncn1)C(Cl)(Cl)Cl` (centres undefined) showed a melting point of 173 to 174 °C.
In turn, `COCCOc1ccc(CCC(=O)N(CCOC)S(N)(=O)=O)c(Oc2ncc(C(F)(F)F)cc2Cl)c1` had a melting point of 101 °C.
To `O=C(O)c1cn(C2CC2)c2c(Cl)c(N3CCC(CNCCF)C3)c(F)cc2c1=O` (centres undefined) belongs 138 to 142 °C.
For the compound `CCCCCCCCCCCCCCCCCC(=O)OC(CCc1cc(C(C)(C)C)c(O)c(C(C)(C)C)c1)CCc1cc(C(C)(C)C)c(O)c(C(C)(C)C)c1`, the melting point was in the range of 52 to 54 °C.
In turn, `O=C(O)CC1(CS)CC1` came in with a melting point of 42 to 45 °C.
To `Cc1c(-c2nc(-c3c(F)cccc3Cl)nn2C)csc1Br` belongs 133 to 134 °C; to `COc1ccc2c(c1)CCC1CC(=O)N(c3ccccn3)N=C21` (centres undefined), 194 to 196 °C.
To `CCOC(=O)c1c(N=Cc2ccc(-c3cccs3)s2)sc(N=Cc2ccc(-c3cccs3)s2)c1C(=O)OCC` belongs 130 to 132 °C; to `Nc1ccc(F)c(-c2ccncc2)c1F`, 190 to 192 °C.
As for `Cc1nc2cc(NC(=O)NC34CC5CC(CC(C5)C3)C4)ccc2s1`, the melting point lay in the range of 209 to 214 °C.
With `O=C(O)CCc1cc(C(c2cc(F)ccc2F)S(=O)(=O)c2ccc(C(F)(F)F)cc2)c(Cl)cn1` (centres undefined), the melting point is 166 to 167 °C.
To `C=CCNc1c(NC(CC)CC)cc(C)nc1Oc1c(C)cc(C)cc1C` belongs 86 to 88 °C; to `COc1cn(-c2ccc(C(F)(F)F)cc2F)nc(-c2ccnn2-c2ccccc2)c1=O`, 169 to 171 °C.
To `Nc1ccccc1SC[C@H](NC(=O)OCc1ccccc1)C(=O)O` belongs 161 to 162 °C; to `CCCCc1nc2c(N)nc3ccccc3c2n1NCc1ccccc1`, 159 to 160 °C.
To `O=C(Nc1ccc(Cl)c(Cl)c1)ONC1=Nc2ccc([N+](=O)[O-])cc2C(c2ccccc2Cl)=NC1` belongs 190 to 192 °C.
`CCCCCCCCNc1ccc(-c2cc3ccccc3o2)cc1` returned a melting point of 87 to 90 °C.
`CC1Cc2c(c(Cl)cc(F)c2N2C(=O)C3=C(CCCC3)C2=O)O1` (centres undefined) came in with a melting point of 169 to 171 °C.
To `CCN(CC)C(=O)COc1ccc(C(O)(CC)c2cccc(C(F)(F)F)c2)cc1` (centres undefined) belongs 83 to 84 °C; to `CCNC(=O)c1ccccc1OC(C)(C)C`, 34.5 to 36 °C; to `CCNC(=S)c1ccc2c(c1)Nc1ccccc1S2`, 155 to 156 °C.
`Cc1oc(-c2ccccc2)nc1CCOc1ccc(/C=C/CO)cc1` had a melting point of 127 to 128 °C.
In turn, `Nc1ccccc1C(=O)Nc1ccc(C(F)(F)F)cc1` yielded a melting point of 160 to 161 °C.
To `Cc1ccc2c(c1)c(=O)c(-c1nnnn1C)cn2C` belongs 281 to 282 °C.
To `CO[C@@H]1[C@H](O)[C@@H](CO)O[C@H]1n1cnc2c(N[C@H](C)Cc3ccc(Cl)s3)ncnc21` belongs 84 to 85 °C.
To `CCS(=O)(=O)c1cc(OC)c(OC)c(C(=O)O)c1` belongs 138 to 139 °C; to `COc1cccc2c1CC(C(=O)NCc1ccc(C(=O)O)cc1)N2S(=O)(=O)c1ccc(-c2ccc(F)cc2Cl)cc1` (centres undefined), 225 to 234 °C.
As to `O=C(O)CN1C(=O)C(=Cc2ccccc2Cl)SC1=S`, the melting point was 238 to 242 °C.
To `CCOC(=O)c1ccc(NC(=O)OC(C)(C)C)cc1` belongs 149 to 150 °C; to `O=C(Nc1cc(-n2cccn2)nc(-c2ccco2)n1)OCc1cccnc1`, 254 to 256 °C.
To `CC(C)(C)OC(=O)N1[C@@H](CC2CCCCC2)[C@H](c2ccco2)OC1(C)C` belongs 52 to 56 °C; to `Cc1ncsc1C(=O)Nc1ccc(-n2nc(C(F)(F)F)cc2C2CC2)cc1`, 137 to 141 °C; to `Cn1cc(CN2CCCNC2=C[N+](=O)[O-])cn1`, 186 to 190 °C.
To `COc1cc2c(cc1OC)C(C(S)(C#N)c1ccccc1C(=O)O)=NCC2` (centres undefined) belongs 245 to 247 °C; to `O=C1NC(Cc2c[nH]c3ccccc23)C(=O)N1CCCN1CCOCC1` (centres undefined), 158 to 160 °C.
The compound `CCCCn1c(=O)c2c(ncn2S(=O)(=O)c2cccc3ccccc23)n(CCCC)c1=O` returned a melting point of 135 to 136 °C.
To `COC(=O)C1=C(SC)N(c2c(C)cc(C)cc2Cl)CCC1` belongs 85.3 to 87.6 °C.
To `Cc1nc(-n2cc(CCc3ccccc3)nn2)sc1C(=O)NCc1ccccc1` belongs 167 to 170 °C; to `O=C(Nc1cc(Cl)cc(Cl)c1)c1cc2ccccc2cc1O`, 254 to 255 °C.
To `O=C(O)c1ccc(NC(=O)C(CS)Cc2ccccc2)cc1` (centres undefined) belongs 166 to 168 °C; to `[N-]=[N+]=C1c2ccccc2-c2ccc(Cl)cc21`, 102 to 108 °C.
`CCN(CC)C(=S)SCc1ccccc1CSC(=S)N(CC)CC`: the melting point lay in the range of 78 to 80 °C.
To `CC(C)N1CCC(C2=C(C#N)C(c3cccc4nonc34)c3c[nH]nc3N2)CC1` (centres undefined) belongs 260 °C; to `CCOC(=O)COc1ccc2cc(-c3cc4ccccc4o3)ccc2c1Cl`, 140 to 142 °C; to `CCOC(=O)Cc1c(-c2ccccc2)c2cc3c(cc2oc1=O)C(=O)OC3`, 222 to 223 °C.
To `CCCc1c(CSc2nnc(SCCCCCCC(=O)O)s2)ccc(C(C)=O)c1O` belongs 63 to 68 °C.
For the compound `CNCC1Cc2cc(-c3ccccc3)cc(-c3ccc(F)cc3)c2O1` (centres undefined), the melting point is over 250 °C.
Compound `COC(=O)C(Cc1ccc(OS(=O)(=O)C(F)(F)F)c(OS(=O)(=O)C(F)(F)F)c1)NC(=O)OC(C)(C)C` (centres undefined) gave a melting point of 80 to 82 °C.
In the case of `COC(=O)C1(C)Oc2ccc(Cl)cc2C(C)(C)O1` (centres undefined), the melting point worked out at 89 °C.
Compound `CCN1C(=O)C(C)(C)C(=O)N(C)c2cc(CN(CCn3ccc4occc4c3=O)Cc3cc(C)nn3C)ccc21` gave a melting point of 161 to 165 °C.
To `c1ccc(CSc2nc[nH]n2)cc1` belongs 79 to 80 °C; to `COC(=O)c1cccc(CCN(C)CCCC(C(=O)OC)(c2ccc(OC)c(OC)c2)C(C)C)c1` (centres undefined), 87 to 90 °C; to `CCCCC(CC)c1nc2cc(O)c(C#N)c(C)n2n1` (centres undefined), 253 to 254 °C.
To `Cc1cn(COC(CO)CO)c(=O)[nH]c1=O` belongs 156 to 157 °C.
To `CCn1nc(-c2c(-c3ccc(F)cc3)nn3ccc(OC)cc23)ccc1=O` belongs 179 to 180 °C; to `CCOC(=O)C=CC=Cc1cn(-c2cccnc2)c2ccccc12`, 112 to 113 °C.
`CCOC(=O)C(C)=CC=CC(C)=CC=CC=C(C)C=O`: the melting point is 120 to 121 °C.
To `Cc1cc(=O)[nH]c2ccc(OCCCN3CCC(NC(=O)c4ccccc4)CC3)cc12` belongs 243 to 245 °C.
To `C[C@@H](n1cnc2cc(N3CCOCC3)ccc2c1=O)[C@](O)(Cn1cncn1)c1ccc(F)cc1F` belongs 196 to 197 °C; to `CCOC(=O)COc1cccc2nc3c(c(N)c12)CCCC3`, 141 to 142 °C; to `COc1ccc(S(=O)(=O)c2ccccc2)cc1S(=O)(=O)NC1CCOCC1`, 176 to 178 °C.
As to `O=S(=O)(Nc1ccc(Cl)nc1I)c1ccccc1`, the melting point was determined as 132 °C.
`COC(=O)C1CC2c3cccc4c3C(CN4)CC2N(C)C1` (centres undefined): the melting point lay in the range of 110 to 120 °C.
To `O=C1CC(c2cccc(O)c2)=Nc2ccc(N3CCCC3)cc21` belongs 364 to 367 °C; to `C=Cc1nc(NC)sc1-c1ccncc1`, 110 to 111 °C.
Regarding `CNN=C1CCC(C)n2c1ncc(C(=O)O)c2=O` (centres undefined), the melting point was 219 to 220 °C.
Take `Cc1c(Cc2ccc(C(C)C)cc2)c2c(c(C)c1NC(=O)CC(C)(C)C)CC(C)O2` (centres undefined): the melting point was in the range of 179 to 180 °C.
